{"source": "patent EP4029374A1", "about": "“NITROGEN CONTAINING SURFACTANTS FOR AGRICULTURAL USE” (Nouryon Chemicals International B.V., priority 2021, dated 2022)", "key": {"[1]": {"assay": "Solubility of prior art betaine surfactants in concentrated glyphosate salt compositions", "type": "physicochemical", "text": "WO2000038523 (Huntsman, US6500784, US6653257, EP1139761) discloses an amphoteric surfactant with the structure RCONH(CH2)n N^+R^12CH2COO- wherein R1 is alkyl or hydroxyl alkyl group with C1 to C4 and n = 2 - 4, and discloses a betaine with the structure R R^12N^+CH2COO- wherein R1 is alkyl or hydroxyl alkyl group with C1 to C4. The amphoterics disclosed there mainly functioned as a co-surfactant to solubilize a ether carboxylate in to concentrated glyphosate systems. In the context of the document, there was no mention of bioefficacy of betaines or other amphoteric surfactants by themselves. […] However, without proper testing of individual surfactant, it is not possible to determine whether the effect seen in the mixture of three surfactants comes from the claimed surfactant or the other two surfactants. Moreover, no actual bioefficacy data and especially no data are provided on the degree of \"overall kill\" provided in the absence of surfactants and in the presence of surfactants; without such data it is not possible to determine whether or not the claimed alkyl amido betaine was effective in enhancing herbicidal activity of glyphosate under the conditions of the test reported. This patent requires Na ion to be < 0.035% for the glyphosate formulation to be stable. Moreover, it used only IPA-glyphosate as examples. It is only recently known that many soluble surfactants in IPA-glyphosate are not soluble in concentrated K or NH4 glyphosate formulations. […] Since stearyl dimethylamidopropyl betaine itself had poor solubility in concentrated potassium glyphosate system, it is expected that the solubility of stearyl dimethylamidopropyl betaine plus ether carboxylate would be even worst in the concentrated potassium glyphosate system. Therefore, the claimed formulation in claim 1 in the document may not be stable, that is not useful, in a concentrated K glyphosate system.\nUS 20050170965 also indicates the aqueous glyphosate formulation is stable on storage. However, it is only recently known that many stable surfactants in IPA-glyphosate are not soluble in concentrated K or NH4 glyphosate formulations. Tests indicate that a composition of 360 g ae/l di-ammonium glyphosate could not dissolve 5.4% coco dimethyl betaine and a composition of 480 g ae/l potassium glyphosate could not dissolve 5.4% coco dimethylamidopropyl betaine. Since coco dimethyl betaine and coco dimethylamidopropyl betaine had poor solubility in concentrated potassium and di-ammonium glyphosate systems, it is expected that the claimed formulation in claim 16 of the document may not be stable in concentrated K or NH4 glyphosate systems. […]"}, "morning glory; wheat": {"system": "morning glory; wheat", "assay": "Green house trial of glyphosate formulations, % Control (Example 3)", "type": "in vivo", "conditions": "930, 465 and 233 g ae/ha; 28 DAT; compared with glyphosate formulation without surfactant; result in words (FIGS. 9-10)", "text": "Glyphosate formulation containing oleylamphopolycarboxy glycinate (Na salt) was compared in a green house trial with glyphosate formulation containing tallowamine-10EO (as positive control) and glyphosate alone in terms of % Control. Three glyphosate rates were used, 930 g ae/ha, 465 gae/ha, and 233 g ae/ha.\nThe results are plotted in FIGS. 9-10."}, "[2]": {"system": "morning glory (IPOHE, a broad leaf week) and winter wheat (TRZAW, a narrow leaf grass)", "assay": "Greenhouse spray of concentrated glyphosate samples, % control at 28 DAT (Example 2)", "type": "in vivo", "conditions": "glyphosate : surfactant 13:1, 489 and 978 g ae/H, result in words (FIGS. 7-8)", "procedure": "Table. 3 Studied glyphosate formulations using various surfactants\nThe concentrated glyphosate samples were diluted to two glyphosate rates and sprayed in a green house so that the final glyphosate rates of the spray solutions were 489 and 978 g ae/H. Three samples at two rates equals six treatments that were sprayed on each of two species, morning glory (IPOHE, a broad leaf week) and winter wheat (TRZAW, a narrow leaf grass). […]\nHigher ratio means lower surfactant concentration. A ratio of 13:1 means the sample, at the same glyphosate concentration, has 4.3 times less surfactant than a sample with a ratio of 3:1.\nSample A (glyphosate with added tallowamine-15EO) served as a positive control. Sample B containing only glyphosate without added surfactant served as a negative control.\nFIGS. 7-8 illustrates the % control results at 28 DAT."}, "wheat": {"system": "wheat", "assay": "Glyphosate formulation trial on wheat (Example 5)", "type": "in vivo", "conditions": "168 g ae/ha; glyphosate to surfactant ratio 3 : 1; picture taken at 21DAT (FIG. 13)", "text": "Cocoamine-6EO betaine was compared in the same trial with tallowamine-15EO as the positive control and the surfactant-free sample as negative control in glyphosate formulations. Glyphosate to surfactant ratio was 3 : 1.\nThis can be seen from the picture at FIG. 13, taken at 21DAT."}}, "data": [{"compound": "coco dimethylamidopropyl betaine", "values": [{"measurement": "surfactant solubility", "setting": "[1]; in a composition of 360 g ae/l potassium glyphosate", "result": "< 80", "unit": "g/L"}, {"measurement": "surfactant solubility", "setting": "[1]; in a composition of 480 g ae/l potassium glyphosate", "result": "< 5.4", "unit": "%"}]}, {"compound": "oleylamphopolycarboxy glycinate (Na salt)", "values": [{"measurement": "glyphosate efficacy", "setting": "morning glory; wheat", "result": "enhanced glyphosate efficacy"}]}, {"compound": "tallow diamine trimethyl di-betaine", "values": [{"measurement": "glyphosate bioefficacy", "setting": "[2]", "result": "enhanced glyphosate bioefficacy even at very low rate"}]}, {"compound": "Ethoxylated cocoamine (6EO) betaine [cocoamine-6EO betaine]", "values": [{"measurement": "control to wheat", "setting": "wheat", "result": "excellent control"}]}, {"compound": "coco dimethyl betaine", "values": [{"measurement": "surfactant solubility", "setting": "[1]; in a composition of 360 g ae/l di-ammonium glyphosate", "result": "< 5.4", "unit": "%"}]}, {"compound": "CCCCCCCCCCCCCCCCCC(=O)NCCC[N+](C)(C)CC(=O)[O-]", "note": "[stearyl dimethylamidopropyl betaine]", "values": [{"measurement": "surfactant solubility", "setting": "[1]; in a composition of 51.3% potassium glyphosate", "result": "< 1.8", "unit": "%"}]}, {"compound": "tallowamine-15EO", "values": [{"measurement": "control to wheat", "setting": "wheat", "result": "excellent control"}]}]}
